Test results published in the supplement of paper PMC10307832.

Columns and labels:
Test in all cases: relative viability (nuclei count vs DMSO), 5 days (fraction); higher = more cells survive
Gemcitabine + Dasatinib = compound: Nc1ccn([C@@H]2O[C@H](CO)[C@@H](O)C2(F)F)c(=O)n1 [Gemcitabine] + Cc1nc(Nc2ncc(C(=O)Nc3c(C)cccc3Cl)s2)cc(N2CCN(CCO)CC2)n1 [Dasatinib] (partner 0.075 µM)
Summary of the method: (§1)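 Dosing by pin tool came one day after lung cancer cell lines were seeded in 1536-well plates, using either one drug or a fixed anchor-drug dose plus five library-drug doses (not always all listed) in √10 steps. After 5 days, nuclei were counted on 4× images. Relative viability is treated-well nuclei count divided by vehicle-well nuclei count, and values are medians of duplicate plates.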

Gemcitabine + Pemetrexed = compound: Nc1ccn([C@@H]2O[C@H](CO)[C@@H](O)C2(F)F)c(=O)n1 [Gemcitabine] + Nc1nc2[nH]cc(CCc3ccc(C(=O)N[C@@H](CCC(=O)O)C(=O)O)cc3)c2c(=O)[nH]1 [Pemetrexed] (partner 0.2 µM)
Summary of the method: as §1

[1] = compound: Nc1ccn([C@@H]2O[C@H](CO)[C@@H](O)C2(F)F)c(=O)n1 [Gemcitabine] + CC(=O)c1c(C)c2cnc(Nc3ccc(N4CCNCC4)cn3)nc2n(C2CCCC2)c1=O [Palbociclib] (partner 0.5 µM)
Summary of the method: as §1

Gemcitabine + Vorinostat = compound: Nc1ccn([C@@H]2O[C@H](CO)[C@@H](O)C2(F)F)c(=O)n1 [Gemcitabine] + O=C(CCCCCCC(=O)Nc1ccccc1)NO [Vorinostat] (partner 1 µM)
Summary of the method: as §1

Cell Line | relative viability (Gemcitabine + Dasatinib; first compound 0.001 µM) | relative viability (Gemcitabine + Dasatinib; first compound 0.003162 µM) | relative viability (Gemcitabine + Dasatinib; first compound 0.01 µM) | relative viability (Gemcitabine + Dasatinib; first compound 0.03162 µM) | relative viability (Gemcitabine + Dasatinib; first compound 0.1 µM) | relative viability (Gemcitabine + Pemetrexed; first compound 0.001 µM) | relative viability (Gemcitabine + Pemetrexed; first compound 0.003162 µM) | relative viability (Gemcitabine + Pemetrexed; first compound 0.01 µM) | relative viability (Gemcitabine + Pemetrexed; first compound 0.03162 µM) | relative viability (Gemcitabine + Pemetrexed; first compound 0.1 µM) | relative viability ([1]; first compound 0.001 µM) | relative viability ([1]; first compound 0.003162 µM) | relative viability ([1]; first compound 0.01 µM) | relative viability ([1]; first compound 0.03162 µM) | relative viability ([1]; first compound 0.1 µM) | relative viability (Gemcitabine + Vorinostat; first compound 0.001 µM) | relative viability (Gemcitabine + Vorinostat; first compound 0.003162 µM) | relative viability (Gemcitabine + Vorinostat; first compound 0.01 µM) | relative viability (Gemcitabine + Vorinostat; first compound 0.03162 µM) | relative viability (Gemcitabine + Vorinostat; first compound 0.1 µM)
PC-3 [JPC-3] | 1.01 | 0.925 | 0.635 | 0.252 | 0.207 | 1.23 | 0.566 | 0.434 | 0.414 | 0.31 | 0.512 | 0.472 | 0.499 | 0.471 | 0.443 | 0.659 | 0.536 | 0.36 | 0.338 | 0.366
PC-14 | 0.262 | 0.12 | 0.0174 | 0.0131 | 0.016 | 0.132 | 0.168 | 0.0563 | 0.0461 | 0.0413 | 0.547 | 0.2 | 0.0649 | 0.0528 | 0.0391 | 0.82 | 0.165 | 0.0458 | 0.0558 | 0.0381
RERF-LC-KJ | 0.837 | 0.879 | 0.768 | 0.291 | 0.19 | 0.5 | 0.485 | 0.459 | 0.357 | 0.263 | 1.06 | 1.02 | 0.991 | 0.356 | 0.255 | 0.661 | 0.682 | 0.709 | 0.452 | 0.246
SK-LU-1 | 0.165 | 0.123 | 0.106 | 0.112 | 0.131 | 1.01 | 0.434 | 0.252 | 0.2 | 0.237 | 0.386 | 0.312 | 0.283 | 0.184 | 0.221 | 0.753 | 0.339 | 0.267 | 0.251 | 0.252
SK-MES-1 | 0.297 | 0.171 | 0.116 | 0.119 | 0.114 | 0.804 | 0.271 | 0.2 | 0.201 | 0.173 | 0.257 | 0.274 | 0.229 | 0.223 | 0.225 | 0.839 | 0.254 | 0.181 | 0.185 | 0.178
SW 900 | 0.526 | 0.138 | 0.0977 | 0.0689 | 0.0628 | 0.476 | 0.401 | 0.171 | 0.124 | 0.109 | 0.551 | 0.562 | 0.286 | 0.176 | 0.186 | 0.476 | 0.374 | 0.236 | 0.129 | 0.146
SW 1573 | 0.481 | 0.258 | 0.0669 | 0.0389 | 0.0494 | 0.876 | 0.732 | 0.0969 | 0.0574 | 0.0459 | 0.432 | 0.308 | 0.131 | 0.0954 | 0.0788 | 0.75 | 0.591 | 0.122 | 0.0661 | 0.0393
UMC-11 | 0.464 | 0.516 | 0.415 | 0.368 | 0.223 | 0.814 | 0.769 | 0.747 | 0.676 | 0.403 | 0.295 | 0.36 | 0.287 | 0.284 | 0.233 | 0.339 | 0.505 | 0.425 | 0.256 | 0.152
